# Entries after “also recorded” stand apart in the source; their conditions may differ.
# Tests used:
# human HCN1 = target: T1, human HCN1 (Homo sapiens, UniProt O60741); assay: Two-electrode voltage clamp of Xenopus oocytes injected with human HCN1 cRNA; type: cell-based; details: for block of HCN1 currents: Cs+ 3 mM in ND-96
# T1 construct: expressed in transfected cells; host or cells: Xenopus laevis oocytes injected with cRNA transcribed from pGEM HE-human HCN1
# T1 sequence (O60741 1-890): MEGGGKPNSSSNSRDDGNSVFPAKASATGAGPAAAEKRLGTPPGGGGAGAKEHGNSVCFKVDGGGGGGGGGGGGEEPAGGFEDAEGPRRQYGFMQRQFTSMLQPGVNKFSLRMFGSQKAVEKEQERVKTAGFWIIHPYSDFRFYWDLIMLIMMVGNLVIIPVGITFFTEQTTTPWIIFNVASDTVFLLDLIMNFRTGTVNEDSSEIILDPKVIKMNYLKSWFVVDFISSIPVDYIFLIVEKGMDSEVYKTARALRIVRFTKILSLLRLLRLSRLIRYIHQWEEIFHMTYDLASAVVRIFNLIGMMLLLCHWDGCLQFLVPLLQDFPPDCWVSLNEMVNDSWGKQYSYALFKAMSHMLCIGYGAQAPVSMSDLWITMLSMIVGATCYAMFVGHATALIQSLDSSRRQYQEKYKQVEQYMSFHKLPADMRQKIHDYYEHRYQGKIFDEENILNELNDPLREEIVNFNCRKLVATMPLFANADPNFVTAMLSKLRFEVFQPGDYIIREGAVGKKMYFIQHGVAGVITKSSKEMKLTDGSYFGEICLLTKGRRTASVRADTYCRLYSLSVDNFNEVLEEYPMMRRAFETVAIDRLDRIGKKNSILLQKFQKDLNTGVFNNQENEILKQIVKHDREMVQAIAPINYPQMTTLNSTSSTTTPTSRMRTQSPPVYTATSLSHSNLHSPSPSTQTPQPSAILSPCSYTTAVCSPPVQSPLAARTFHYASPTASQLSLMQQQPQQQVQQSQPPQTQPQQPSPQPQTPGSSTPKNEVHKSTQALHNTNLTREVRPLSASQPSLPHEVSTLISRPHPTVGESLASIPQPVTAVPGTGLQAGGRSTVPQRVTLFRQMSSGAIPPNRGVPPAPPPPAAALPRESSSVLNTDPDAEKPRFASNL
# Ih in large DRG neurons = assay: Whole cell patch clamp of Ih in acutely dissociated large L5 DRG neurons of SNL and control rats; type: cell-based, rat
# human HCN3 = target: T2, human HCN3 (Homo sapiens, UniProt Q9P1Z3); assay: Whole cell patch clamp of HEK293 cells stably expressing human HCN3; type: cell-based
# T2 construct: expressed in transfected cells; host or cells: HEK293 cells stably transfected with hHCN3-pCDNA3.1 Zeo
# T2 sequence (Q9P1Z3 1-774): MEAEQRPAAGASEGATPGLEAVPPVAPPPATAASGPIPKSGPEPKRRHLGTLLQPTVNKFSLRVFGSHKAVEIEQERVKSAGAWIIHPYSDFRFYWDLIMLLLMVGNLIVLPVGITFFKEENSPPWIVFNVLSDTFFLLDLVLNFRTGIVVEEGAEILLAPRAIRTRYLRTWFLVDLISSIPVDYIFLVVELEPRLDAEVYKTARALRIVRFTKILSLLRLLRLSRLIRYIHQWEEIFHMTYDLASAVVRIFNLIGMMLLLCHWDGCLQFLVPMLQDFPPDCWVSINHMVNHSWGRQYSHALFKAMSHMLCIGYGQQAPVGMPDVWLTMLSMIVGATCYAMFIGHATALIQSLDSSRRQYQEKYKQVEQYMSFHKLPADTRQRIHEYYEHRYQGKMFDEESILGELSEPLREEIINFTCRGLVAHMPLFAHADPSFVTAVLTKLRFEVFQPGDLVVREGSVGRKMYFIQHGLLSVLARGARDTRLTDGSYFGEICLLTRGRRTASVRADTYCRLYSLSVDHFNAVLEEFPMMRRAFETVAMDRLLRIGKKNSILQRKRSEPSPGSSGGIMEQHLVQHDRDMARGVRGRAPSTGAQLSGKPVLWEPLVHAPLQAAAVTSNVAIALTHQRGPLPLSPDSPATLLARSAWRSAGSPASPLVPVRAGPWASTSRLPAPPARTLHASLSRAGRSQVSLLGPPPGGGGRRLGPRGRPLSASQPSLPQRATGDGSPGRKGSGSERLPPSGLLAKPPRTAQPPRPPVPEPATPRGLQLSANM
# Ih = details: applied intracellularly at 5 or 10 mM; cited from earlier work
# [1] = tested on: rat mild thermal injury model; assay: Spontaneous pain behaviors in the rat mild thermal injury (first-degree burn) model; details: for suppression of spontaneous pain behaviors: 30 and 60 min; for adverse behavioral effects: morphine 3 mg/kg or ZD7288 10 mg/kg i.p.
# [2] = tested on: spontaneous firing of injured primary afferents (Aβ and Aδ fibers); assay: In vitro single fiber recording of spontaneous (ectopic) discharges in excised dorsal root/DRG/spinal nerve preparations from SNL rats; parameters: species or system rat
# SNL rats = assay: Tactile allodynia (von Frey 50% paw withdrawal threshold) in the SNL (Chung) neuropathic pain model; type: in vivo, rat; details: i.p.
# Procedure: Preparation of SNL (spinal nerve ligation) model: All studies were conducted in keeping with the guidelines of the Institutional Animal Care Committees of the University of California, San Diego and RWJPRI. Male Harlan Sprague-Dawley rats, 100-150 g, were housed in cages with solid bottoms and sawdust bedding, with a 12/12 h reversed light cycle (lights on 2100-900), and allowed free access to food pellets and water. Animals were housed in groups of 2 after surgical interventions. A surgical neuropathy was created as follows, to create a model commonly referred to as the SNL, or spinal nerve ligation model, also commonly referred to as the Chung model. Under isoflurane/oxygen anesthesia, a dorsal midline incision was made from approximately L3-S2. Using a mixture of sharp and blunt dissection, the left L6/S1 posterior interarticular process was exposed and resected to permit adequate visualization of the L6 transverse process, which was gently removed. Careful teasing of the underlying fascia exposed the left L4 and L5 spinal nerves distal to their emergence from the intervertebral foramina. The nerves were gently separated, and the L5 and in some cases either the L4 (for in vitro electrophysiology recordings) or the L6 nerve firmly ligated with 6-0 silk suture material. The wound was then inspected for hemostasis and closed in two layers. Animals with thresholds greater than 4 g were considered unsuccessful preparations(Chaplan et al., (1994) Journal of Neuroscience Methods 53: 55-63).
# Behavioral assessment: Behavioral signs of allodynia were documented as follows. Briefly, rats were transferred to a testing cage with a wire mesh bottom and allowed to acclimate for 10-15 minutes. […] Lifting of the paw was recorded as a positive response and the next lightest filament chosen for the next measurement. […]
# normal rats = assay: 55° C. hot plate test (latency to paw lick), acute thermally induced pain; type: in vivo, rat; details: 10 mg/kg i.p.
# Procedure: A cutoff of 20 seconds of thermal surface exposure was employed to prevent tissue damage. Drug administration: Normal rats were administered ZD7288, 10 mg/kg, or an equivalent volume of saline, i.p. at time 0. Behavioral assessments were performed at 45, 60 and 75 minutes after drug administration.
# CFA-injected rats = assay: Tactile allodynia in the complete Freund's adjuvant (CFA) paw model of inflammatory pain; type: in vivo, rat
# [3] = tested on: preclinical models of neuropathic pain; details: cited from earlier work
# [4] = tested on: ectopic firing in injured peripheral nerves; details: systemically administered; cited from earlier work
# [5] = tested on: native Ih in normal rat L4 dorsal root ganglion neurons; assay: Whole cell patch clamp of native Ih in dissociated L4 DRG neurons of uninjured rats (lidocaine); type: cell-based; details: bath-applied at neutral pH
# Procedure: Lidocaine was tested for its effect on Ih expressed in dissociated L4 dorsal root ganglion neurons from uninjured rats to determine whether this well known Na channel blocker could have other mechanisms of action.
# DRG were extirpated, dissociated and cultured 3-4 days on poly-D-lysine coated coverslips as described in Example 10. Ih was measured using the whole cell configuration of the patch clamp technique according to the methods described in Example 10 with the exception that the pipette solution was the solution used in Example 3. Neurons were challenged with a family of hyperpolarizing voltage pulses (−60 mV to −150 mV in increments of 10 mV) from a holding potential of −50 mV. Ih was determined at the end of 600 msec duration test pulses. Lidocaine was bath-applied at neutral pH and the percent inhibition of control Ih was determined after lidocaine achieved steady state block. Plotted is the steady state current observed at −134 mV as a percent of control after incubation of lidocaine at the indicated concentrations. […] Lidocaine block was reversible. Data were obtained from 3 cells having control Ih densities of −1.5, −2.0 and −2.2 pA/pF.
smiles,measurement,setting,value
"[Cl-].[Cs+] [Cs^+, CsCl]",effect on endogenous inward currents of oocytes,human HCN1; Cs+ 3 mM,no effect
same,block of HCN1 currents,"human HCN1; Ih evoked by stepping to −80 mV, n=3",94%
same,block of HCN1 currents,"human HCN1; Ih evoked by stepping to −100 mV, n=3",92%
same,block of HCN1 currents,"human HCN1; Ih evoked by stepping to −120 mV, n=3",90%
same,"block of low threshold inward currents in HCN1-injected oocytes, reversibility","human HCN1; Cs+ 3 mM, n=3",reversibly blocked
same,block of Ih in large DRG neurons,Ih in large DRG neurons; extracellular Cs+ 3 mM,efficacious block
same,block of hyperpolarization-induced inward currents (Ih),human HCN3; 3 mM CsCl,completely blocked
same,reversibility of effect on HCN3 currents,human HCN3; Cs+ 3 mM,rapidly reversible
CC[N+](CC)(CC)CC(=O)Nc1c(C)cccc1C [QX-314],block of Ih,Ih,blocks Ih
CCN(c1ccccc1)c1cc(=NC)n(C)c(C)n1.Cl [ZD7288],suppression of spontaneous pain behaviors,"[1]; ZD7288 10 mg/kg i.p., 10 mg/kg",near complete suppression; also recorded: suppressed spontaneous pain
same,adverse behavioral effects,[1],No adverse behavioral effects
same,block of Ih in large DRG neurons,Ih in large DRG neurons; ZD7288 50 μM,efficacious block
same,effect on spontaneous firing of Aδ fiber,[2]; 100 micromolar,attenuation of firing
same,"time to complete suppression of ectopic firing, typical Aβ fiber",[2]; 100 micromolar,3 to 4 min
same,conduction blockade of evoked action potentials,[2]; after application of ZD7288,no conduction blockade
same,suppression of spontaneous discharges of Aβ fibers,[2]; bath application 100 μM for 5 min,complete suppression; also recorded: completely suppressed
same,efficacy of suppression of allodynic responses (% MPE),SNL rats,75.7+/−15.4%
same,suppression of tactile allodynia,"SNL rats; 1, 3, 10 mg/kg",suppressed allodynic responses in a dose-dependent manner; also recorded: blocked in a dose dependent manner; also recorded: suppressed the tactile allodynia
same,behavioral adverse effects / motor function,SNL rats; up to 10 mg/kg,No untoward behavioral effects; also recorded: normal motor function; also recorded: without overt adverse effects on behavior
same,cells with no detectable Ih after previous bath exposure and wash,"human HCN3; ZD7288 50 μM, subsequently washed, previously 6 of 6 cells expressed Ih",3 of 3
same,block of hyperpolarization-induced inward currents (Ih),"human HCN3; ZD7288 50 μM, n=3",98+/−2%
same,reversibility of effect on HCN3 currents,"human HCN3; ZD7288 50 μM, washout period of at least 15 min",did not reverse
same,effect on acute thermally-evoked pain,normal rats,minimal effect
same,difference from saline in hot plate latency,normal rats; 45 or 60 min,No statistically significant difference
same,difference from saline in hot plate latency,"normal rats; 75 min, statistically significant, minor",approximately 15%
same,suppression of CFA-induced tactile allodynia,"CFA-injected rats; ZD7288 10 mg/kg i.p., 10 mg/kg",suppressed allodynia; also recorded: markedly suppressed
CCCCN1CCCCC1C(=O)Nc1c(C)cccc1C (centres unmarked) [bupivacaine],anti-hyperalgesic activity,[3],does not possess any anti-hyperalgesic activity
NCC1(CC(=O)O)CCCCC1 [gabapentin],suppression of CFA-induced tactile allodynia,CFA-injected rats; gabapentin 100 mg/kg i.p.,not
CC(C)Cc1ccc(C(C)C(=O)O)cc1 (centres unmarked) [ibuprofen],suppression of CFA-induced tactile allodynia,CFA-injected rats; ibuprofen 30 mg/kg i.p.,suppressed
same,suppression of CFA-induced tactile allodynia,"CFA-injected rats; ibuprofen 30 mg/kg i.p., listed as Ibuprofen",some efficacy
CCN(CC)CC(=O)Nc1c(C)cccc1C [lidocaine],effect on ectopic firing in injured peripheral nerves,[4],stops the ectopic firing
same,reversibility of block of Ih,[5],reversible
CN1CC[C@]23c4c5ccc(O)c4O[C@H]2[C@@H](O)C=C[C@H]3[C@H]1C5 [morphine],suppression of spontaneous pain behaviors,[1]; morphine 3 mg/kg i.p.,near complete suppression; also recorded: suppressed spontaneous pain
same,adverse behavioral effects,[1],No adverse behavioral effects
same,suppression of CFA-induced tactile allodynia,CFA-injected rats; morphine 3 mg/kg i.p.,suppressed

# Reference: US20030022813A1, “Treating pain by targeting hyperpolarization-activated, cyclic nucleotide-gated channels” (priority 2001, published 2003)
